Structure (SMILES) | flash point
CCCCCCCCCCCCCCCl [1-Chlorotetradecane] | 130.1 °C
CCCCCC(C)(Cl)CC (centres undefined) [3-Chloro-3-methyloctane] | 60.0 °C
CCCCCCCCCCCCCCCCCCl [1-Chloroheptadecane] | 145.2 °C
CC(C)(C)CCCl [1-Chloro-3,3-dimethylbutane] | 19.1 °C
CC(C)CC(C)(C)Cl [2-Chloro-2,4-dimethylpentane] | 29.8 °C
CCCCC(Cl)(CC)CC [3-Chloro-3-ethylheptane] | 60.0 °C
CCCCCCCC(Cl)CCCC (centres undefined) [5-Chlorododecane] | 99.5 °C
CCCCCCCCCCCCCl [1-Chlorododecane] | 104.6 °C
CCCCCC(Cl)CC (centres undefined) [3-Chlorooctane] | 52.6 °C

Remark: another data set of the same source

Structure (SMILES) | flash point
C[O][Ge]([O]C)([O]C)[O]C [TETRAMETHOXYGERMANE] | 34.00 °C
[Cl][Ge]([Cl])([c]1ccccc1)[c]1ccccc1 [DIPHENYLDICHLOROGERMANE] | 160.00 °C
[CH3][Ge]([CH3])([CH3])[Ge]([CH3])([CH3])[CH3] [HEXAMETHYLDIGERMANE] | 14.00 °C
C[N](C)[Ge]([N](C)C)([N](C)C)[N](C)C [TETRAKIS(DIMETHYLAMINO)GERMANE] | 34.00 °C
CCC[CH2][Ge]([Cl])([Cl])[CH2]CCC [DI-n-BUTYLDICHLOROGERMANE] | 107.00 °C
C=C(C)C(=O)O[CH2][Ge]([CH3])([CH3])[CH3] [METHACRYLOXYMETHYLTRIMETHYLGERMANE] | 63.00 °C
C[CH2][Ge]([Cl])([Cl])[Cl] [ETHYLTRICHLOROGERMANE] | 51.00 °C
C=[CH][Ge]([CH2]C)([CH2]C)[CH2]C [VINYLTRIETHYLGERMANE] | 32.00 °C
[CH3][Ge]([Cl])([Cl])[Cl] [METHYLTRICHLOROGERMANE] | 10.00 °C
C[CH2][Ge]([CH2]C)([CH2]C)[CH2]C [TETRAETHYLGERMANE] | 42.00 °C
CCCC[O][Ge]([O]CCCC)([O]CCCC)[O]CCCC [TETRA-n-BUTOXYGERMANE] | 112.00 °C
[CH3][Ge]([CH3])([CH3])[Br] [TRIMETHYLBROMOGERMANE] | 37.00 °C
C[C](C)(C)[Ge]([CH3])([CH3])[Cl] [t-BUTYLDIMETHYLCHLOROGERMANE] | 34.00 °C
[CH3][Ge]([CH3])([CH2]Cl)[CH2]Cl [BIS(CHLOROMETHYL)DIMETHYLGERMANE] | 51.00 °C
c1cc[c]([GeH2][c]2ccccc2)cc1 [DIPHENYLGERMANE] | 104.00 °C
C=C[CH2][Ge]([CH3])([CH3])[CH3] [ALLYLTRIMETHYLGERMANE] | 1.00 °C

Remark: another data set of the same source

Structure (SMILES) | flash point
C=[CH][Sn]([Cl])([Cl])[CH]=C [DIVINYLDICHLOROTIN] | 204.00 °C
CC[N](CC)[Sn]([N](CC)CC)([N](CC)CC)[N](CC)CC [TETRAKIS(DIETHYLAMINO)TIN] | 39.00 °C
C=[CH][Sn]([CH]=C)([CH]=C)[CH]=C [TETRAVINYLTIN] | 40.00 °C
CCC[CH2][Sn]([CH2]CCC)([CH2]CCC)[N](C)C [DIMETHYLAMINOTRI-n-BUTYLTIN] | 115.00 °C
C=[C](OCC)[Sn]([CH2]CCC)([CH2]CCC)[CH2]CCC [1-ETHOXYVINYLTRI-n-BUTYLTIN] | 113.00 °C
C[CH2][Sn]([CH2]C)([CH2]C)[CH2]C [TETRAETHYLTIN] | 53.00 °C
CCCCCCC[CH2][Sn]([Cl])([Cl])[CH2]CCCCCCC [DIOCTYLDICHLOROTIN] | 204.00 °C
[Cl][Sn]([c]1ccccc1)([c]1ccccc1)[c]1ccccc1 [TRIPHENYLCHLOROTIN] | 70.00 °C
CCC[CH2][Sn]([Cl])([Cl])[CH2]CCC [DI-n-BUTYLDICHLOROTIN] | 168.00 °C
C=C[CH2][Sn]([CH2]CCC)([CH2]CCC)[CH2]CCC [ALLYLTRI-n-BUTYLTIN] | 103.00 °C
C=C[CH2][Sn]([CH2]C=C)([CH2]C=C)[CH2]C=C [TETRAALLYLTIN] | 75.00 °C
CCC[CH2][Sn]([C]#Cc1ccccc1)([CH2]CCC)[CH2]CCC [PHENYLETHYNYLTRI-n-BUTYLTIN] | 113.00 °C
CCC[CH2][Sn]([CH2]CCC)([CH2]CCC)[S]c1ccccc1 [PHENYLTHIOTRI-n-BUTYLTIN] | 104.00 °C
CCC[CH2][Sn]([CH2]CCC)([CH2]CCC)[O]C [TRI-n-BUTYLMETHOXYTIN] | 98.00 °C
C[Si](C)(C)[N]([Sn][N]([Si](C)(C)C)[Si](C)(C)C)[Si](C)(C)C [BIS[BIS(TRIMETHYLSILYL)AMINO]TIN(II)] | 56.00 °C
CCC[CH2][Sn]([CH2]CCC)([CH2]CCC)[c]1cccs1 [2-THIENYLTRI-n-BUTYLTIN] | 106.00 °C
[CH3][Sn]([CH3])([CH3])[CH2]Cl [CHLOROMETHYLTRIMETHYLTIN] | 39.00 °C

Remark: another data set of the same source

Structure (SMILES) | flash point
C1CCC(PC2CCCCC2)CC1 [DICYCLOHEXYLPHOSPHINE] | 110.00 °C
CCCC[O-].CCCC[O-].CCCC[O-].[Sb+3] [ANTIMONY(III) n-BUTOXIDE] | 68.00 °C
CCCCN(CCCC)C(=S)[S-].CCCCN(CCCC)C(=S)[S-].[Ni+2] [NICKEL DI-n-BUTYLDITHIOCARBAMATE] | 260.00 °C
CC[N-]C.CC[N-]C.CC[N-]C.CC[N-]C.[Ti+4] [TITANIUM TETRAKIS(ETHYLMETHYLAMIDE)] | 10.00 °C
CC(C)(C)CCCCCC(=O)[O-].[Ag+] [SILVER NEODECANOATE] | 102.00 °C
CC(C)[O-].CC(C)[O-].CC(C)[O-].CC(C)[O-].[Ti+4] [TITANIUM ISOPROPOXIDE] | 25.00 °C
CCCCCCCCCCCCCC[P+](CCCCCC)(CCCCCC)CCCCCC.[Cl-] [TETRADECYL(TRIHEXYL)PHOSPHONIUM CHLORIDE] | 118.00 °C
[CH3][Ga]([CH3])[CH3] [TRIMETHYLGALLIUM] | -1.00 °C
CCC[O-].CCC[O-].CCC[O-].CCC[O-].[Ti+4] [TITANIUM n-PROPOXIDE] | 45.00 °C
CCCC[O-].CCCC[O-].CCCC[O-].CCCC[O-].CCCC[O-].[Ta+5] [TANTALUM(V) n-BUTOXIDE] | 66.00 °C
c1ccc(P(c2ccccc2)c2ccccc2)cc1 [TRIPHENYLPHOSPHINE] | 182.00 °C
C[N](C)[Ga]([N](C)C)[N](C)C [TRIS(DIMETHYLAMINO)GALLIUM] | 56.00 °C
CC(C)[O-].CC(C)[O-].CCOC(=O)CC(C)=O.[Al+2] [ALUMINUM DIISOPROPOXIDE ETHYLACETOACETATE] | 50.00 °C
[CH3][Al]([CH3])[Cl] [DIMETHYLALUMINUM CHLORIDE] | -18.00 °C
CC[N-]CC.CC[N-]CC.CC[N-]CC.CC[N-]CC.[Ti+4] [TITANIUM TETRAKIS(DIETHYLAMIDE)] | 37.00 °C
CC(C)[O][Al]([CH3])[CH3] [DIMETHYLISOPROPOXYALUMINUM] | 5.00 °C
CCCC[O-].CCCC[O-].CCCC[O-].CCCC[O-].CCCC[O-].[Nb+5] [NIOBIUM(V) n-BUTOXIDE] | 90.00 °C
CC(C)[O-].CC(C)[O-].CC(C)[O-].[Cl-].[Ti+4] [TITANIUM CHLORIDE TRIISOPROPOXIDE] | 22.00 °C

Remark: another data set of the same source

Structure (SMILES) | flash point
C[SiH](C)c1ccccc1 [Phenyldimethylsilane] | 38 °C
C[Si](Cl)(Cl)CCCCl [3-Chloropropylmethyldichlorosilane] | 86 °C
C=C[Si]1(C)[Si](C)(C=C)[Si](C)(C=C)[Si]1(C)C=C (centres undefined) [Tetramethyltetravinylcyclotetrasilane] | 112 °C
Cl[SiH](Cl)c1ccccc1 [Phenyldichlorosilane] | 60 °C
CN(C)[Si](C)(C)C [(N,N-Dimethylamino)trimethylsilane] | -19 °C
CC[Si](Cl)(Cl)Cl [Ethyltrichlorosilane] | 22 °C
C[SiH](Cl)Cl [Methyldichlorosilane] | -32 °C

Remark: another data set of the same source

Structure (SMILES) | flash point
CN(C)[Si](C)(C)C [(N,N-Dimethylamino)trimethylsilane] | -18.6 °C
CC[Si](Cl)(Cl)Cl [Ethyltrichlorosilane] | -10.00 °C

Source: a flash point compilation (Sun et al. 2020)
